In patent publication US20250270648A1, “MOLECULAR SIGNATURE FOR ASSESSING THE RESPONSIVENESS OF CANCER TO MITOCHONDRIA-TARGETED ANTIOXIDANTS” (UNIVERSITÉ CATHOLIQUE DE LOUVAIN, priority 2021, published 2025):

What was measured:
4T1 breast tumors = experiment: 4T1-bearing mice, doxorubicin ±MitoTEMPO; type: in vivo, mouse; conditions: doxorubicin 4 mg/kg i.v. weekly ×3 + MitoTEMPO 0.7 mg/kg i.p. daily; lungs day +21
Protocol: On day −8, nine-week-old female Balb/cJRj mice (Janvier®) were injected with 200,000 viable 4T1 cells into the fourth mammary fat pad. When tumors reached an average diameter of 4 mm (day 0) and became palpable in all mice, an intravenous injection of doxorubicin (4 mg/kg) was administered once per week during 3 weeks (30) ±daily intraperitoneal injections of MitoTEMPO (0.7 mg/kg) or the same volume of vehicle (DMSO) until the end of the experiment. Tumor volume was determined three times a week using an electronic caliper and normalized to tumor volume at day 0. At the end-point (day +21), mice were sacrificed and their lungs were fixed in formalin. Tissues were stained with hematoxylin & eosin (H&E). Pictures of whole lung slides were acquired with a slide scanner (SCN400, Leica®) and analyzed with the Digital Image Hub software (DIH, Leica®). The area occupied by metastases was normalized to the lung area analyzed.

MCF7 cells [1] = experiment: Glucose uptake and lactate release, enzymatic; type: cell-based, human; conditions: 24 h
Protocol: (§1) Cellular oxygen consumption rates (OCRs) were assessed on a Seahorse XF96® bioenergetic analyzer using the Mito Stress® Kit following manufacturer's instructions (Agilent Technologies®). Briefly, 40,000 cells were plated and left to adhere for 24 h before treatment with the indicated doses DXR. Basal mitochondrial oxygen consumption (mtOCR) was identified as the portion of OCR sensitive to 0.5 μM of Complex I inhibitor rotenone together with 0.5 μM of Complex III inhibitor antimycin A. Proton leak corresponded to the portion of mtOCR resistant to 1 μM of ATP synthase inhibitor oligomycin. Maximal OCR was determined after mitochondrial potential disruption using 1 μM of ionophore carbonyl cyanide-4-(trifluoromethoxy)phenylhydrazone (FCCP). At the end of the experiment, cells were lysed in 30 μl of NaOH 0.5 M, and proteins were quantified with the Bradford method in order to normalize data by total protein content. Lactate and glucose concentrations were measured on deproteinized cell supernatants using an ISCUSflex CMA600™ analyzer (Aurora Borealis®), as previously described (Sonveaux et al.; PLoS. One 2012; 7, e33418).

[2] = test system: murine 4T1 breast cancer cells; experiment: Seahorse XF96 OCR and proton leak; type: cell-based, mouse; conditions: 24 h
Protocol: as §1

[3] = test system: human MCF7 breast cancer cells; experiment: Seahorse XF96 OCR and proton leak; type: cell-based; conditions: 24 h
Protocol: as §1

[4] = test system: murine 4T1 breast cancer cell line; experiment: Mitochondrial superoxide, mitoSOX FACS; type: cell-based, mouse
Protocol: (§2) Mitochondrial superoxide was measured in cells loaded with 3 μM of MitoSOX (Invitrogen®, catalogue #M36008) for 10 min at 37° C. Cells were gently detached with Accutase® (Thermo Fisher Scientific®, catalogue #A1110501), resuspended in PBS containing 10 mM of D-Glucose and 2% FBS, and immediately analyzed by flow cytometry using a FACSCantoII flow cytometer (BD Biosciences®).

MCF7 cells [5] = experiment: Migration towards 0.5% serum, chemotaxis chamber; type: cell-based, human; conditions: low dose DXR, 0.1 μg/mL, 16 h pretreatment, 6 h recovery
Protocol: (§3) Previous to migration and invasion assays, cells were pretreated with the indicated amounts of drugs for 16 h, and left to recover for 6 h in full culture medium. Migration assays were performed in a NeuroProbe® standard 48-well chemotaxis chamber according to manufacturer's instructions. Briefly, the bottom chamber was filled with DMEM containing 0.5% serum as a chemo-attractant. Fifty thousand cells were seeded in the upper chamber in the same medium but without serum ±MitoQ where indicated, and allowed to migrate overnight through an 8-μm pore-size polycarbonate membrane. A similar stimulation protocol was used for invasion assays, with the difference of using Matrigel-coated transwells (Corning®). With MCF7 cells, membranes were previously incubated for 30 min with a solution of Vitronectin 10 μg/ml (Sigma-Aldrich®, #SRP3186). Migrated/invaded cells were fixed and stained with 100 μl of a 0.23% crystal violet solution (Sigma-Aldrich®, #C0775) for 10 min before counting on a SpectraMax™ i3 spectrophotometer equipped with a MiniMax imaging cytometer, using the SoftMax Pro software. Data were normalized to vehicle-treated cells (control).

4T1 cells [6] = experiment: Invasion, Matrigel-coated transwells; type: cell-based, mouse; conditions: low dose DXR, 0.1 μg/mL, 16 h pretreatment, 6 h recovery
Protocol: as §3

MCF7 cells [7] = experiment: Mitochondrial superoxide, mitoSOX FACS; type: cell-based, human; conditions: DXR 0.1 μg/mL, 24 h
Protocol: as §2

4T1 cells [8] = experiment: Glucose uptake and lactate release, enzymatic; type: cell-based, mouse; conditions: DXR 0.1 μg/mL, 24 h
Protocol: as §1

4T1 cells [9] = experiment: Migration towards 0.5% serum, chemotaxis chamber; type: cell-based, mouse; conditions: 16 h pretreatment, 6 h recovery
Protocol: as §3

SkBr3 cells = experiment: RT-qPCR of biomarker signature after SKQ1; type: cell-based, human; conditions: 500 nM SKQ1, 48 h
Protocol: (§4) Total mRNA from MDA-MB-231 or SkBr-3 human breast cancer cells treated ±500 nM SKQ1 for 48 h (Alexandr V. et al. Int. J. Cancer 2016; 139, 130-139) was extracted using the Tri reagent (Brunschwig Chemie®, cat #TR118). mRNAs were quantified by NanoDrop™1000 (Thermo Fisher Scientific®), and were reverse-transcribed in complementary DNAs using the high-capacity cDNA Reverse Transcription Kit (Thermo Fisher Scientific®, cat #4368814) according to manufacturer's protocol. Complementary DNAs (500 ng per sample) were amplified by RT-qPCR using the ROX SYBR Master Mix dTTP Blue (Eurogentec®) and primers listed in Table 5 and Table 6 on a CFX96 Real Time PCR system (BioRad®). Gene expression was normalized to […] gene expression.

MDA-MB-231 cells = experiment: RT-qPCR of biomarker signature after SKQ1; type: cell-based, human; conditions: 500 nM SKQ1, 48 h
Protocol: as §4

MDA-MB-436 cells = experiment: RT-qPCR of biomarker signature after SKQ1; type: cell-based, human; conditions: 500 nM SKQ1, 48 h
[10] = test system: human MDA-MB-231 breast cancer cell line; experiment: Mitochondrial superoxide, mitoSOX FACS; type: cell-based; conditions: increasing doses of cisplatin, 48 h
Protocol: as §2

`CC1(C)CC(NC(=O)C[P+](c2ccccc2)(c2ccccc2)c2ccccc2)CC(C)(C)N1[O]` [MitoTEMPO] was tested, and the “cancer metastasis in breast cancer-bearing animals treated with DXR” value (4T1 breast tumors) was “inhibit”.
In the case of `COc1cccc2c1C(=O)c1c(O)c3c(c(O)c1C2=O)C[C@@](O)(C(=O)CO)C[C@@H]3O[C@H]1C[C@H](N)[C@H](O)[C@H](C)O1` [doxorubicin], the glucose uptake (MCF7 cells [1]; DXR 0.1 μg/mL) is reported as “significantly increasing”, the glycolysis (MCF7 cells [1]; DXR 0.1 to 0.01 μg/mL range) is reported as “little effect” and the mtOCR ([2]; Low-dose DXR) is reported as “increased”. For the same compound, the “leak of protons at the electron transport chain (ETC)” value ([2]; increasing doses of DXR) was “dose dependent leak”, the “mitochondrial oxygen consumption rate (mtOCR)” value ([3]; DXR low doses, 0.1 to 0.01 μg/mL) was “increased” and the “leak of protons at the electron transport chain (ETC)” value ([3]; increasing doses of DXR) was “dose dependent leak”. For the same compound, the “production of mitochondrial superoxide at the ETC” value ([4]; DXR 0.1 μg/mL, 24 h) was “increased production”, the cell migration (MCF7 cells [5]) was “stimulated” and the cell invasion (4T1 cells [6]) was “stimulated”. The “production of mitochondrial superoxide at the ETC” value (MCF7 cells [7]) was “increased production”, the glycolysis (4T1 cells [8]) was “little effect” and the lactate release (4T1 cells [8]) was “significantly decreasing”. For the same compound, the cell migration (4T1 cells [9]; low dose DXR, 0.1 μg/mL) was “stimulated”.
With `CC1=C(C)C(=O)C(CCCCCCCCCC[P+](c2ccccc2)(c2ccccc2)c2ccccc2)=CC1=O.[Br-]` [SKQ1, [10-(4,5-dimethyl-3,6-dioxo-1,4-cyclohexadien-1-yl)decyl]triphenyl-phosphonium, monobromide] the “amplitude of the change in NUPR1 expression” value (SkBr3 cells) was “+25%”, the “amplitude of the change in SLC7A11 expression” value (SkBr3 cells) was “+565%” and the “amplitude of the change in SOX2 expression” value (SkBr3 cells) was −95%. For the same compound, the “amplitude of the change in VIM expression” value (SkBr3 cells) was −19%, the “genes of the complete biomarker signature with the expected gene expression changes” value (SkBr3 cells) was 13 of the 15 and the “SLC7A11 expression increased by” value (SkBr3 cells; P<0.005) was 6.65 fold. The “TXNRD1 expression increased by” value (SkBr3 cells; P<0.005) was 3.20 fold, the “gene expression of PCK2” value (SkBr3 cells; P<0.005) was “increased” and the “gene expression of SOX2” value (SkBr3 cells; P<0.005) was “decreased”. The “PHGDH-1 expression increased by” value (SkBr3 cells; P<0.01) was 2.26 fold, the “PSAT1 expression increased by” value (SkBr3 cells; P<0.01) was 2.26 fold and the “gene expression of ASNS” value (SkBr3 cells; P<0.01) was “increased”. For the same compound, the “gene expression of ZEB1” value (SkBr3 cells; P<0.05) was “decreased”, the “SERPINE1 expression increased by” value (SkBr3 cells; P=0.0732) was 1.45 fold and the “expected gene expression changes that were statistically significant” value (SkBr3 cells; among 13 genes) was 8. For the same compound, the “gene expression of NANOG” value (SkBr3 cells; not significant, P=0.1539) was “decreased”, the “gene expression of NUPR1” value (SkBr3 cells; not significant, P=0.2615) was “increased” and the “gene expression of VIM” value (SkBr3 cells; not significant, P=0.3557) was “decreased”. For the same compound, the “gene expression of G6PD” value (SkBr3 cells; only 2 replicates) was “increased”, the “amplitude of the change in NUPR1 expression” value (MDA-MB-231 cells) was “+676%” and the “amplitude of the change in SERPIN1 expression” value (MDA-MB-231 cells) was “+63%”. For the same compound, the “amplitude of the change in SNAI1 expression” value (MDA-MB-231 cells) was −21%, the “amplitude of the change in SOX2 expression” value (MDA-MB-231 cells) was −52% and the “genes of the complete biomarker signature with the expected gene expression changes” value (MDA-MB-231 cells) was 12 of the 15. For the same compound, the “PHGDH-1 expression increased by” value (MDA-MB-231 cells; P<0.005) was 5.36 fold, the “PSAT1 expression increased by” value (MDA-MB-231 cells; P<0.005) was 3.43 fold and the “SLC7A11 expression increased by” value (MDA-MB-231 cells; P<0.005) was 2.35 fold. For the same compound, the “TXNRD1 expression increased by” value (MDA-MB-231 cells; P<0.005) was 1.69 fold, the “gene expression of ASNS” value (MDA-MB-231 cells; P<0.005) was “increased” and the “gene expression of G6PD” value (MDA-MB-231 cells; P<0.005) was “increased”. The “gene expression of NUPR1” value (MDA-MB-231 cells; P<0.005) was “increased”, the “gene expression of PCK2” value (MDA-MB-231 cells; P<0.005) was “increased” and the “gene expression of SLC6A9” value (MDA-MB-231 cells; P<0.005) was “increased”. For the same compound, the “gene expression of SOX2” value (MDA-MB-231 cells; P<0.005) was “decreased”, the “SERPINE1 expression increased by” value (MDA-MB-231 cells; P<0.01) was 1.63 fold and the “expected gene expression changes that were statistically significant” value (MDA-MB-231 cells; among 12 genes) was 11. For the same compound, the “gene expression of SNAI1” value (MDA-MB-231 cells; not significant, P=0.4575) was “decreased”, the “amplitude of the change in ASNS expression” value (MDA-MB-436 cells) was “+526%” and the “amplitude of the change in G6PD expression” value (MDA-MB-436 cells) was “+22%”. The “amplitude of the change in SNAI1 expression” value (MDA-MB-436 cells) was −12%, the “amplitude of the change in SOX2 expression” value (MDA-MB-436 cells) was −67% and the “genes of the complete biomarker signature with the expected gene expression changes” value (MDA-MB-436 cells) was 14 of the 15. For the same compound, the “PHGDH-1 expression increased by” value (MDA-MB-436 cells; P<0.005) was 2.51 fold, the “PSAT1 expression increased by” value (MDA-MB-436 cells; P<0.005) was 2.53 fold and the “TXNRD1 expression increased by” value (MDA-MB-436 cells; P<0.005) was 2.11 fold. For the same compound, the “gene expression of ASNS” value (MDA-MB-436 cells; P<0.005) was “increased”, the “gene expression of NUPR1” value (MDA-MB-436 cells; P<0.005) was “increased” and the “gene expression of PCK2” value (MDA-MB-436 cells; P<0.005) was “increased”. For the same compound, the “gene expression of SLC6A9” value (MDA-MB-436 cells; P<0.005) was “increased”, the “SERPINE1 expression increased by” value (MDA-MB-436 cells; P<0.01) was 1.46 fold and the “SLC7A11 expression increased by” value (MDA-MB-436 cells; P<0.01) was 3.60 fold. The “gene expression of SOX2” value (MDA-MB-436 cells; P<0.05) was “decreased”, the “expected gene expression changes that were statistically significant” value (MDA-MB-436 cells; among 14 genes) was 10 and the “gene expression of G6PD” value (MDA-MB-436 cells; not significant, P=0.0974) was “increased”. For the same compound, the “gene expression of NANOG” value (MDA-MB-436 cells; not significant, P=0.5663) was “decreased”, the “gene expression of SNAI1” value (MDA-MB-436 cells; not significant, P=0.6013) was “decreased” and the “gene expression of ZEB1” value (MDA-MB-436 cells; not significant, P=0.6890) was “decreased”.
`N.N.[Cl][Pt][Cl]` [cisplatin] was tested, and the “mitochondrial superoxide production at the ETC” value ([4]; increasing doses of cisplatin, 48 h) was “induce”, the “mitochondrial superoxide production at the ETC” value [10] was “induce” and the cancer cell migration (4T1 cells [9]; cisplatin 77.76 μM) was “induced”.
